Measured values taken from PubChem BioAssay AID2206 (Vanderbilt High Throughput Screening Facility, 2009).
Active and inactive are the calls of the source.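 The calls were made as follows: active = average EC50 below 10 µM; inactive = average EC50 of 10 µM or more.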

Biological target: Muscarinic acetylcholine receptor M1 (Rattus norvegicus) (UniProt P08482)
Assay: potentiation of ACh EC20 at rat M1 – cell-based, selectivity assay for M5 allosteric modulator project, SAR follow-up (AID 2206)
Details: CHO-K1 rat M1, Fluo-4 calcium

Sequence of Muscarinic acetylcholine receptor M1 (Rattus norvegicus) (P08482 whole entry, looked up): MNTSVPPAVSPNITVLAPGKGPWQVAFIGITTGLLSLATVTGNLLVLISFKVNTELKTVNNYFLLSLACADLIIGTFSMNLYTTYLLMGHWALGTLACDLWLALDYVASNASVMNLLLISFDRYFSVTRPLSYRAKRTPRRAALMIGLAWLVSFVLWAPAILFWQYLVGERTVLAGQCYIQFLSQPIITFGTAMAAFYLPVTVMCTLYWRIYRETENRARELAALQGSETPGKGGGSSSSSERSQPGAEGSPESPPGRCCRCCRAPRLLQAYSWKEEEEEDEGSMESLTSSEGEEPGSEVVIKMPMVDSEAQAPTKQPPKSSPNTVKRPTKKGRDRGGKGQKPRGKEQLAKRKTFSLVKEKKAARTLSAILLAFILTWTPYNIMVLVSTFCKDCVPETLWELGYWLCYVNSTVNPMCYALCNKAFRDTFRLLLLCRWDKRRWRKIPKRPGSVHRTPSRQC

EC50	SMILES
> 30 µM (inactive)	O=C1C(=O)N(Cc2ccc(OC(F)(F)F)cc2)c2ccc(OC(F)(F)F)cc21
3.99 µM	O=C1C(=O)N(Cc2ccc(Br)cc2)c2c(F)cccc21
5.38 µM	COc1ccc(CN2C(=O)C(=O)c3cccc(Cl)c32)cc1
5.18 µM	O=C1C(=O)N(Cc2ccc(C(F)(F)F)cc2)c2c(F)cccc21
> 10 µM (inactive)	Cc1ccccc1CN1C(=O)C(=O)c2cc(OC(F)(F)F)ccc21
inactive	COc1ccc(CN2C(=O)C(=O)c3ccccc32)cc1
> 30 µM (inactive)	COc1cccc(CN2C(=O)C(=O)c3cc(OC(F)(F)F)ccc32)c1
5.41 µM	O=C1C(=O)N(Cc2ccc(C(F)(F)F)cc2)c2ccc(Cl)cc21
> 30 µM (inactive)	COc1cccc(CN2C(=O)C(=O)c3c(Cl)ccc(Cl)c32)c1
> 10 µM (inactive)	O=C1C(=O)N(Cc2ccc(Br)cc2F)c2ccc(OC(F)(F)F)cc21
> 30 µM (inactive)	O=C1C(=O)N(Cc2ccccc2C(F)(F)F)c2c(F)cccc21
7.09 µM	O=C1C(=O)N(Cc2ccc(C(F)(F)F)cc2)c2ccc(OC(F)(F)F)cc21
6.21 µM	O=C1C(=O)N(Cc2ccccc2C(F)(F)F)c2ccc(F)cc21
> 30 µM (inactive)	O=C1C(=O)N(Cc2ccccc2Cl)c2ccc(OC(F)(F)F)cc21
> 30 µM (inactive)	COc1ccc(CN2C(=O)C(=O)c3cc(OC(F)(F)F)ccc32)cc1
